# Measurements published in patent publication US20240409585A1, “MACROCYCLIC IMMUNOMODULATORS” (priority 2021, published 2024).
# Numbered stars: 1 amine (or outer) side, 2 acyl side, 3 side chain; on linkers, the order of the positions; unused ones are H or OH. Bridge positions count the residues as written; N and C are the ends. Square brackets hold non-standard residues; d marks the D form. Peptide text beside a SMILES is read from it. X33 = O=C([C@H](Cc1ccc(-c2cccc(Cl)c2)cc1)N[*:1])[*:2]; Phe(3-allyloxy) = C=CCOc1cccc(C[C@H](N)C(=O)O)c1; Phe(3-CF3) = N[C@@H](Cc1cccc(C(F)(F)F)c1)C(=O)O; Phe(4-COOH) = N[C@@H](Cc1ccc(C(=O)O)cc1)C(=O)O; Bip = N[C@@H](Cc1ccc(-c2ccccc2)cc1)C(=O)O; 3Pal = N[C@@H](Cc1cccnc1)C(=O)O; NMeA = CN[C@@H](C)C(=O)O; Nle = CCCC[C@H](N)C(=O)O; dDap = NC[C@@H](N)C(=O)O
# Molecular target: T1, PE-labeled human PD-L1-Ig binding to Jurkat cell line over-expressing human PD-1 (Jurkat-PD-1) (Homo sapiens, UniProt Q15116)
# T1 construct: expressed in transfected cells; host or cells: Jurkat
# Test: Jurkat-PD-1 Cell Binding High-Content Screening Assay (CBA): Method 1
# Settings: Jurkat-hPD-1 cells, PE-labeled PD-L1-Ig 20 nM final; read-out: Jurkat HPDL1 PD1 IC50 (uM) (Method 1)
# T1 sequence (Q15116 25-288): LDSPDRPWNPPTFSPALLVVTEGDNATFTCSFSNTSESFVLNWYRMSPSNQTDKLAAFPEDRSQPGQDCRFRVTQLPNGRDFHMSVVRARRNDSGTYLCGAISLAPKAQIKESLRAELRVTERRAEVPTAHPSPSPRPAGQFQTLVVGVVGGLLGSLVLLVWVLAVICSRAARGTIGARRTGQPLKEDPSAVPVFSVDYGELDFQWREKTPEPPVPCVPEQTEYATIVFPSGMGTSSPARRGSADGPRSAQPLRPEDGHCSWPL
row,IC50,Compound
1,0.04 µM,CC(C)C[C@@H]1NC(=O)[C@H](Cc2c[nH]c3ccccc23)NC(=O)[C@H](CC(=O)O)NC(=O)[C@H](Cc2ccc(O)cc2)NC(=O)[C@H](Cc2ccccc2)NC(=O)CSC[C@@H](C(=O)N[C@@H](C)C(N)=O)NC(=O)[C@H](CO)NC(=O)[C@H](C(C)C)NC(=O)[C@H](CC(C)C)NC(=O)[C@H](CC(N)=O)NC(=O)[C@@H](C(C)C)NC(=O)[C@H](C)N(C)C(=O)[C@H](C(C)C)NC(=O)[C@H](Cc2ccc(-c3ccccc3)cc2)NC1=O [Compound 1771] ({CH2CO}-FYDWL[Bip]V[NMeA][dV]NLVSCA-NH2; thioether N-14)
2,0.04 µM,C=CCOc1cccc(C[C@@H]2NC(=O)[C@H](Cc3ccccc3)NC(=O)CSC[C@@H](C(=O)N[C@@H](C)C(N)=O)NC(=O)[C@H](CO)NC(=O)[C@H](C(C)C)NC(=O)[C@H](CC(C)C)NC(=O)[C@H](CC(N)=O)NC(=O)[C@@H](C)NC(=O)[C@H](C)N(C)C(=O)[C@H](C(C)C)NC(=O)[C@H](Cc3ccc(-c4ccccc4)cc3)NC(=O)[C@H](CC(C)C)NC(=O)[C@H](Cc3c[nH]c4ccccc34)NC(=O)[C@H](CC(=O)O)NC2=O)c1 [Compound 1772] ({CH2CO}-F[Phe(3-allyloxy)]DWL[Bip]V[NMeA][dA]NLVSCA-NH2; thioether N-14)
3,0.05 µM,CC(C)C[C@@H]1NC(=O)[C@H](C)NC(=O)[C@@H](C)NC(=O)[C@H](C)N(C)C(=O)[C@H](CCC(=O)O)NC(=O)[C@H](Cc2ccc(-c3ccccc3)cc2)NC(=O)[C@H](CC(C)C)NC(=O)[C@H](Cc2c[nH]c3ccccc23)NC(=O)[C@H](CC(=O)O)NC(=O)[C@H](Cc2ccc(C(=O)O)cc2)NC(=O)[C@H](Cc2ccccc2)NC(=O)CSC[C@@H](C(=O)N[C@@H](C)C(N)=O)NC(=O)[C@H](CO)NC(=O)[C@H](C(C)C)NC1=O [Compound 1773] ({CH2CO}-F[Phe(4-COOH)]DWL[Bip]E[NMeA][dA]ALVSCA-NH2; thioether N-14)
4,0.05 µM,CC(C)C[C@@H]1NC(=O)[C@H](Cc2c[nH]c3ccccc23)NC(=O)[C@H](CC(=O)O)NC(=O)[C@H](Cc2ccc(O)cc2)NC(=O)[C@H](Cc2ccccc2)NC(=O)CSC[C@@H](C(=O)N[C@@H](C)C(N)=O)NC(=O)[C@H](CO)NC(=O)[C@H](C(C)C)NC(=O)[C@H](CC(C)C)NC(=O)[C@H](CC(N)=O)NC(=O)[C@@H](C)NC(=O)[C@H](C)N(C)C(=O)[C@H](C(C)C)NC(=O)[C@H](Cc2ccc(-c3cccc(Cl)c3)cc2)NC1=O [Compound 1774] ({CH2CO}-FYDWL[X33]V[NMeA][dA]NLVSCA-NH2; thioether N-14)
5,0.05 µM,CC(C)C[C@@H]1NC(=O)[C@H](Cc2c[nH]c3ccccc23)NC(=O)[C@H](CC(=O)O)NC(=O)[C@H](Cc2ccc(O)cc2)NC(=O)[C@H](Cc2ccccc2)NC(=O)CSC[C@@H](C(=O)N[C@@H](C)C(N)=O)NC(=O)[C@H](CO)NC(=O)[C@H](C(C)C)NC(=O)[C@H](CC(C)C)NC(=O)[C@H](CC(N)=O)NC(=O)[C@@H](CC(C)C)NC(=O)[C@H](C)N(C)C(=O)[C@H](CCCNC(=N)N)NC(=O)[C@H](Cc2ccc(-c3ccccc3)cc2)NC1=O [Compound 1775] ({CH2CO}-FYDWL[Bip]R[NMeA][dL]NLVSCA-NH2; thioether N-14)
6,0.06 µM,CC(C)C[C@@H]1NC(=O)[C@H](Cc2c[nH]c3ccccc23)NC(=O)[C@H](CC(=O)O)NC(=O)[C@H](Cc2cccc(C(F)(F)F)c2)NC(=O)[C@H](Cc2ccccc2)NC(=O)CSC[C@@H](C(=O)N[C@@H](C)C(N)=O)NC(=O)[C@H](CO)NC(=O)[C@H](C(C)C)NC(=O)[C@H](CC(C)C)NC(=O)[C@H](CC(N)=O)NC(=O)[C@@H](C)NC(=O)[C@H](C)N(C)C(=O)[C@H](C(C)C)NC(=O)[C@H](Cc2ccc(-c3ccccc3)cc2)NC1=O [Compound 1777] ({CH2CO}-F[Phe(3-CF3)]DWL[Bip]V[NMeA][dA]NLVSCA-NH2; thioether N-14)
7,0.07 µM,CCCC[C@@H]1NC(=O)[C@H](CC(N)=O)NC(=O)[C@@H](C)NC(=O)[C@H](C)N(C)C(=O)[C@H](C(C)C)NC(=O)[C@H](Cc2ccc(-c3ccccc3)cc2)NC(=O)[C@H](CC(C)C)NC(=O)[C@H](Cc2c[nH]c3ccccc23)NC(=O)[C@H](CC(=O)O)NC(=O)[C@H](Cc2ccc(O)cc2)NC(=O)[C@H](Cc2ccccc2)NC(=O)CSC[C@@H](C(=O)N[C@@H](C)C(N)=O)NC(=O)[C@H]([C@@H](C)O)NC(=O)[C@H](C(C)C)NC1=O [Compound 1778] ({CH2CO}-FYDWL[Bip]V[NMeA][dA]N[Nle]VTCA-NH2; thioether N-14)
8,0.07 µM,CC(C)C[C@@H]1NC(=O)[C@H](CCCNC(=N)N)NC(=O)[C@@H](C)NC(=O)[C@H](C)N(C)C(=O)[C@H](C(C)C)NC(=O)[C@H](Cc2ccc(-c3ccccc3)cc2)NC(=O)[C@H](C(C)C)NC(=O)[C@H](Cc2c[nH]c3ccccc23)NC(=O)[C@H](CC(=O)O)NC(=O)[C@H](Cc2ccc(O)cc2)NC(=O)[C@H](Cc2ccccc2)NC(=O)CSC[C@@H](C(=O)N[C@@H](C)C(N)=O)NC(=O)[C@H](CO)NC(=O)[C@H](C(C)C)NC1=O [Compound 1779] ({CH2CO}-FYDWV[Bip]V[NMeA][dA]RLVSCA-NH2; thioether N-14)
9,0.08 µM,CC(C)C[C@@H]1NC(=O)[C@H](Cc2c[nH]c3ccccc23)NC(=O)[C@H](CC(=O)O)NC(=O)[C@H](Cc2ccc(O)cc2)NC(=O)[C@H](Cc2ccccc2)NC(=O)CSC[C@@H](C(=O)N[C@@H](C)C(N)=O)NC(=O)[C@H](CO)NC(=O)[C@H](C(C)C)NC(=O)[C@H](CC(C)C)NC(=O)[C@H](CCCNC(=N)N)NC(=O)[C@@H](CC(C)C)NC(=O)[C@H](C)N(C)C(=O)[C@H](CCCNC(=N)N)NC(=O)[C@H](Cc2ccc(-c3ccccc3)cc2)NC1=O [Compound 1780] ({CH2CO}-FYDWL[Bip]R[NMeA][dL]RLVSCA-NH2; thioether N-14)
10,0.08 µM,CC(C)C[C@@H]1NC(=O)[C@H](Cc2c[nH]c3ccccc23)NC(=O)[C@H](CC(=O)O)NC(=O)[C@H](Cc2ccc(O)cc2)NC(=O)[C@H](Cc2ccccc2)NC(=O)CSC[C@@H](C(=O)N[C@@H](C)C(N)=O)NC(=O)[C@H](CO)NC(=O)[C@H](C(C)C)NC(=O)[C@H](CC(C)C)NC(=O)[C@H](CC(N)=O)NC(=O)[C@@H](C)NC(=O)[C@H](C)N(C)C(=O)[C@H](CCCNC(=N)N)NC(=O)[C@H](Cc2ccc(-c3ccccc3)cc2)NC1=O [Compound 1781] ({CH2CO}-FYDWL[Bip]R[NMeA][dA]NLVSCA-NH2; thioether N-14)
11,0.08 µM,CC(C)C[C@@H]1NC(=O)[C@H](Cc2c[nH]c3ccccc23)NC(=O)[C@H](CC(=O)O)NC(=O)[C@H](Cc2ccc(O)cc2)NC(=O)[C@H](Cc2ccccc2)NC(=O)CSC[C@@H](C(=O)N[C@@H](C)C(N)=O)NC(=O)[C@H](CO)NC(=O)[C@H](C(C)C)NC(=O)[C@H](CC(C)C)NC(=O)[C@H](CCCNC(=N)N)NC(=O)[C@@H](C)NC(=O)[C@H](C)N(C)C(=O)[C@H](CCCNC(=N)N)NC(=O)[C@H](Cc2ccc(-c3ccccc3)cc2)NC1=O [Compound 1782] ({CH2CO}-FYDWL[Bip]R[NMeA][dA]RLVSCA-NH2; thioether N-14)
12,0.09 µM,CC(C)C[C@@H]1NC(=O)[C@H](Cc2c[nH]c3ccccc23)NC(=O)[C@H](CC(=O)O)NC(=O)[C@H](Cc2ccc(O)cc2)NC(=O)[C@H](Cc2ccccc2)NC(=O)CSC[C@@H](C(=O)N[C@@H](C)C(N)=O)NC(=O)[C@H](CO)NC(=O)[C@H](C(C)C)NC(=O)[C@H](CC(C)C)NC(=O)[C@H](CC(N)=O)NC(=O)[C@@H](Cc2ccccc2)NC(=O)[C@H](C)N(C)C(=O)[C@H](C(C)C)NC(=O)[C@H](Cc2ccc(-c3ccccc3)cc2)NC1=O [Compound 1783] ({CH2CO}-FYDWL[Bip]V[NMeA][dF]NLVSCA-NH2; thioether N-14)
13,0.09 µM,CC(C)C[C@@H]1NC(=O)[C@H](Cc2c[nH]c3ccccc23)NC(=O)[C@H](CC(=O)O)NC(=O)[C@H](Cc2ccc(O)cc2)NC(=O)[C@H](Cc2ccccc2)NC(=O)CSC[C@@H](C(=O)NCC(N)=O)NC(=O)[C@H](CO)NC(=O)[C@H](C(C)C)NC(=O)[C@H](CC(C)C)NC(=O)[C@H](CC(N)=O)NC(=O)[C@@H](CCC(N)=O)NC(=O)[C@H](C)N(C)C(=O)[C@H](C(C)C)NC(=O)[C@H](Cc2ccc(-c3ccccc3)cc2)NC1=O [Compound 1784] ({CH2CO}-FYDWL[Bip]V[NMeA][dQ]NLVSCG-NH2; thioether N-14)
14,0.09 µM,CC(C)C[C@@H]1NC(=O)[C@H](C)NC(=O)[C@@H](C)NC(=O)[C@H](C)N(C)C(=O)[C@H](CCC(=O)O)NC(=O)[C@H](Cc2ccc(-c3ccccc3)cc2)NC(=O)[C@H](CC(C)C)NC(=O)[C@H](Cc2c[nH]c3ccccc23)NC(=O)[C@H](CC(=O)O)NC(=O)[C@H](Cc2ccc(O)cc2)NC(=O)[C@H](Cc2ccccc2)NC(=O)CSC[C@@H](C(=O)N[C@@H](C)C(N)=O)NC(=O)[C@H](CO)NC(=O)[C@H](C(C)C)NC1=O [Compound 1785] ({CH2CO}-FYDWL[Bip]E[NMeA][dA]ALVSCA-NH2; thioether N-14)
15,0.1 µM,CC(C)C[C@@H]1NC(=O)[C@H](C)NC(=O)[C@@H](C)NC(=O)[C@H](C)N(C)C(=O)[C@H](CCC(=O)O)NC(=O)[C@H](Cc2ccc(-c3ccccc3)cc2)NC(=O)[C@H](CC(C)C)NC(=O)[C@H](Cc2c[nH]c3ccccc23)NC(=O)[C@H](CC(=O)O)NC(=O)[C@H](Cc2ccc(C(=O)O)cc2)NC(=O)[C@H](Cc2cccnc2)NC(=O)CSC[C@@H](C(=O)N[C@@H](C)C(N)=O)NC(=O)[C@H](CO)NC(=O)[C@H](C(C)C)NC1=O [Compound 1786] ({CH2CO}-[3Pal][Phe(4-COOH)]DWL[Bip]E[NMeA][dA]ALVSCA-NH2; thioether N-14)
16,0.1 µM,CC(C)C[C@@H]1NC(=O)[C@H](Cc2c[nH]c3ccccc23)NC(=O)[C@H](CC(=O)O)NC(=O)[C@H](Cc2ccc(O)cc2)NC(=O)[C@H](Cc2ccccc2)NC(=O)CSC[C@@H](C(=O)N[C@@H](C)C(N)=O)NC(=O)[C@H](CO)NC(=O)[C@H](C(C)C)NC(=O)[C@H](CC(C)C)NC(=O)[C@H](CC(N)=O)NC(=O)[C@@H](CN)NC(=O)[C@H](C)N(C)C(=O)[C@H](C(C)C)NC(=O)[C@H](Cc2ccc(-c3ccccc3)cc2)NC1=O [Compound 1787] ({CH2CO}-FYDWL[Bip]V[NMeA][dDap]NLVSCA-NH2; thioether N-14)
